Assay results: patent US20170296545A1, “Composition Of A Ceramic Matrix With A Controlled Release Drug, A Tablet Obtained From The Composition And Methods For Obtaining The Composition And The Tablet” (priority 2009, published 2017)
Read-outs that look alike come from different tables or passages of the source.

What was measured:
[1] = cited from earlier work
Wistar rats [2] = settings: rat, in vivo
Experimental: The tests were performed according to Organization for Economic Cooperation and development OECD 423 guide. The methodology consisted of toxicity by evaluating and analyzing of the biochemical and histopathological parameters which resulted from administration thereof.

Wistar rats [3] = settings: rat, in vivo; remark: listed apart in the source
Experimental: In the slices of the liver of the Wistar rats, it was evaluated the presence of hepatic necrosis, proliferation of biliary ducts, proliferation of fibrous conjunctive tissue, and blood extravasation (Cunha, et. al., 2009).

Compound: Nc1nc2c(ncn2COCCO)c(=O)[nH]1 [acyclovir]
- solubility in acid or diluted alkaline solutions ([1]; acid or diluted alkaline solutions): only slight soluble
- solubility in alcohol ([1]; alcohol): insoluble
- solubility in water ([1]; water): poorly soluble

Compound: pseudoboehmite
- short-term repeated-dose toxicity (Wistar rats [2]): low
- histopathological evaluation of the liver (Wistar rats [3]; 50 mg/kg): tissue integrity
- histopathological evaluation of the liver (Wistar rats [3]; 300 mg/kg): a sinusoidal congestion was detected
- histopathological evaluation of the liver (Wistar rats [3]; 2000 mg/kg): tissue integrity
- histopathological evaluation of the livers (Wistar rats [3]; po): there were not observed any changes in the tissue integrity or apparent injuries
- macroscopic tests of the organs (Wistar rats [3]; po): No abnormal changes
